Columns and labels:
Acetylcholinesterase [1] = molecular target: T1, Acetylcholinesterase (Homo sapiens, UniProt P22303); experiment: Inhibition of human recombinant AChE preincubated 20 mins before substrate addition by Ellman method
Cholinesterase = Cholinesterase (Homo sapiens, UniProt P06276); experiment: Inhibition of human recombinant BchE preincubated 20 mins before substrate addition by Ellman method
[2] = molecular target: Cholinesterases; ACHE & BCHE (Homo sapiens) (UniProt P06276+P22303); experiment: Selectivity ratio of IC50 for human recombinant BchE to IC50 for human recombinant AChE
Acetylcholinesterase [3] = molecular target: T1, Acetylcholinesterase; experiment: Inhibition of human AChE-induced amyloid beta (1-40) aggregation by thioflavin T fluorescence-based assay
[4] = molecular target: Amyloid-beta precursor protein (Homo sapiens) (UniProt P05067); experiment: Inhibition of self-assembly of human amyloid beta (1-42) aggregation at 10 uM by thioflavin T-based fluorometric assay
Amyloid-beta precursor protein (Homo sapiens), sequence (P05067 whole entry): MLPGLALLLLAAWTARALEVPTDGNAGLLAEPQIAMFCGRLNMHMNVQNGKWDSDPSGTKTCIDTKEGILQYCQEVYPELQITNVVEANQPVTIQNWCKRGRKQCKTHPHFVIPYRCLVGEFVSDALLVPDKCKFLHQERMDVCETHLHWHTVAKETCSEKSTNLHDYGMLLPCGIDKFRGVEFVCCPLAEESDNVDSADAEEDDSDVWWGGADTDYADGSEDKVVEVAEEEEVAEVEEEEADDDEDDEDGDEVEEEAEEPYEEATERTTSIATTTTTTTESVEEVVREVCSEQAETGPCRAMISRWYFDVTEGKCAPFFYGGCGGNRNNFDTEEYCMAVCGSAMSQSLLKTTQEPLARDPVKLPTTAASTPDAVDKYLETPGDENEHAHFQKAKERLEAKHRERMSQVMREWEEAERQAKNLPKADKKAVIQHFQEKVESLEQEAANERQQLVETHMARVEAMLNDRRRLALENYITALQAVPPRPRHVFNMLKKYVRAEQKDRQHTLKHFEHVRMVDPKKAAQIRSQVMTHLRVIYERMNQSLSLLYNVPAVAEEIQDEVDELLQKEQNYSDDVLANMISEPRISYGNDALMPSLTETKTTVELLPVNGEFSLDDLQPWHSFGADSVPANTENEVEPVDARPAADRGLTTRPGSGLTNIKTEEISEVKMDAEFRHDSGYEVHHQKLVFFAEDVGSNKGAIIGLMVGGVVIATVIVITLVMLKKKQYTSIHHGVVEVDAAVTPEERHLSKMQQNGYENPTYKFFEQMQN

T1 sequence (P22303 whole entry): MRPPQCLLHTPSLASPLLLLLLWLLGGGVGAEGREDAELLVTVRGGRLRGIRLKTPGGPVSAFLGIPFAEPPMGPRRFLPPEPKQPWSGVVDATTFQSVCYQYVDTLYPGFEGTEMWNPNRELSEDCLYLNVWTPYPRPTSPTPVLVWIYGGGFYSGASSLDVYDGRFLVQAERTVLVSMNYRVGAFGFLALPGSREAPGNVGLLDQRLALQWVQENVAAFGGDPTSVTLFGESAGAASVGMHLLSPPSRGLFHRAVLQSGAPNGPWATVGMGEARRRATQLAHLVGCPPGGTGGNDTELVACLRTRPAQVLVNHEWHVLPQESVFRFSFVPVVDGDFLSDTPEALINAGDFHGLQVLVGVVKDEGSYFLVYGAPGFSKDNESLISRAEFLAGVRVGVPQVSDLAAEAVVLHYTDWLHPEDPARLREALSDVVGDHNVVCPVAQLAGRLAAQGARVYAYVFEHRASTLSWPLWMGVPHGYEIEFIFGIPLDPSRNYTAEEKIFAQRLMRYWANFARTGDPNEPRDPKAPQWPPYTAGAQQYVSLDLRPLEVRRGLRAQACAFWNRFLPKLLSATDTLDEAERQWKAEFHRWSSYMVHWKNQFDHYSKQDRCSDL
Cholinesterase, sequence (P06276 whole entry): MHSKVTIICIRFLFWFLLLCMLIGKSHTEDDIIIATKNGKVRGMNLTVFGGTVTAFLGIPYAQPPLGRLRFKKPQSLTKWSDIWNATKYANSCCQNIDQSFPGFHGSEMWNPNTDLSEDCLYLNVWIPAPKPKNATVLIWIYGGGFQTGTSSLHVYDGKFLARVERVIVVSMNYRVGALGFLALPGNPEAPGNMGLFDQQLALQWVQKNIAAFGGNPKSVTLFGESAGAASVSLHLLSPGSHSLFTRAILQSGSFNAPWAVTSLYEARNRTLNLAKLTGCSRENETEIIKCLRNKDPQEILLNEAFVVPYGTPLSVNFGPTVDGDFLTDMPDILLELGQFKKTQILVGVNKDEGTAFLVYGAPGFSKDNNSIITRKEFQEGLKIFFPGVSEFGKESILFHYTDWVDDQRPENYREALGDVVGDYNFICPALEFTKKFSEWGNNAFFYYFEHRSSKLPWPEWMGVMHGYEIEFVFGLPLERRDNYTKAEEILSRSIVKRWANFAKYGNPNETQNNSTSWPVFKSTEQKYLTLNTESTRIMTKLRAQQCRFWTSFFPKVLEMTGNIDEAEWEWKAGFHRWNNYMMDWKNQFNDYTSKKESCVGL
Cholinesterases; ACHE & BCHE (Homo sapiens), sequence (P06276 whole entry, looked up): as the sequence (P06276 whole entry) above
Cholinesterases; ACHE & BCHE (Homo sapiens), sequence (P22303 whole entry, looked up): as the sequence (P22303 whole entry) above

| Compound | IC50 (Acetylcholinesterase [1]) | IC50 (Cholinesterase) | Ratio IC50 [2] | IC50 (Acetylcholinesterase [3]) | inhibition [4] |
| --- | --- | --- | --- | --- | --- |
| CCN(CCCCCCNC1=CC(=O)C(NCCCCCCN(CC)[C@@H](C)c2ccccc2OC)=CC1=O)[C@@H](C)c1ccccc1OC | 4.03 nM | 958 nM | 238 | 7910 nM | 62.3% |
| CCN(CCCCCCNC1=CC(=O)C(NCCCCCCN(CC)Cc2ccccc2OC)=CC1=O)Cc1ccccc1OC | – | – | 929 | – | – |
| CCN(CCCCCCNC1=CC(=O)C(NCCCCCCN(CC)[C@@H](C)c2ccccc2OC)=CC1=O)[C@H](C)c1ccccc1OC | 0.36 nM | 982 nM | 2730 | 11000 nM | 63.5% |
| CCN(CCCCCCNC1=CC(=O)C(NCCCCCCN(CC)[C@H](C)c2ccccc2OC)=CC1=O)[C@H](C)c1ccccc1OC | 0.5 nM | 1480 nM | 2960 | 9340 nM | 63.9% |

— ChEMBL document CHEMBL1152360, “Structure-activity relationships of memoquin: Influence of the chain chirality in the multi-target mechanism of action” (Bioorg Med Chem Lett, 2009)
